From US5061728A, “Use of 4-phenyl-1,2,3,4-tetrahydro-1-naphthalenamine derivatives in the treatment of inflammation and as immunosuppressants” (Pfizer Inc., priority 1990, dated 1991) come the findings set out here.

pIC50: −log10 of the molar value.

In one assay the target is sigma receptors in brain tissue. Description: In vitro binding: inhibition of (+)-[3H]3-PPP binding in rat whole brain membranes. The settings on record: Table 1, racemates, 3 nM (+)-[3H]3-PPP. The method, then: Affinity of disclosed compounds for sigma receptors in brain tissue was ascertained by the degree of inhibition of binding of the sigma site radioligand, (+)-[^3 H]3-(3-hydroxphenyl)-N-(1-propyl)piperidine ((+)-[^3 H]3-PPP) in competition experiments in vitro. These experiments were conducted by the method of Largent et al. Proc. Nat. Acad. Sec. […] Brains were removed from Sprague-DawleyCD male rats (Charles River Breeding Laboratories, Inc., Wilmington, Mass.; 200-300 g) following decapitation. Whole brain was homogenized in 25 volumes (v/w) of ice-cold 50 mM Tris (tris(hydroxymethyl)amino methane) hydrochloride pH 7.7 buffer using a Polytron PT-10 homogenizer. The pellet resulting from centrifugation of the homogenate at 45,000×g for 10 minutes at 0°-5° was washed twice by resuspension in the same volume of fresh buffer and recentrifugation. The final pellet was dispersed in 50 mM Tris hydrochloride pH 8.0 buffer (50 ml/g of original weight; "tissue preparation"). The incubation mixture in triplicate was comprised of 0.05 ml blank (10 μM pentazocine for nonspecific binding), test compound or vehicle; 0.20 ml (+)-[^3 H]3-PPP (110 Ci/mmol, NEN® DuPont; 3 nM final concentration) in 50 mM Tris hydrochloride pH 8.0 buffer; and 0.75 ml tissue preparation. The latter was added just prior to incubation of the mixture at 25° C. for 90 minutes. Afterwards, the mixture was diluted with 2.5 ml 10 mM Tris hydrochloride pH 7.7 buffer and filtered under vacuum through a Whatman GF/B glass-fiber filter (pretreated with 1% polyethyleneimine) in a Brandell cell harvester to recover the membranes. The filter was washed twice with the diluent buffer and placed in 10 ml Aquasol-2 (NEN® DuPont Co.) for determination of bound radioactivity in a liquid scintillation counter.
In general, pIC50 refers to −log10 of the IC50, conventionally taken in molar units. Higher therefore signals a small IC50. In turn, `CN[C@H]1CC[C@H](c2ccc(Cl)cc2)c2ccccc21` (relative stereo) [(±)-trans 4-Cl NHCH3] gave a pIC50 of 7.12.

As to `CN[C@H]1CC[C@H](c2ccc(Cl)c(C(F)(F)F)c2)c2ccccc21` (relative stereo) [(±)-trans 3-CF3,4-Cl NHCH3], the pIC50 is 7.51.

As for `CN[C@H]1CC[C@H](c2ccc(F)cc2)c2ccccc21` (relative stereo) [(±)-trans 4-F NHCH3], the pIC50 is 7.18.

`CN[C@H]1CC[C@H](c2ccc(C(F)(F)F)cc2)c2ccccc21` (relative stereo) [(±)-trans 4-CF3 NHCH3] had a pIC50 of 7.41.

Compound `CN[C@H]1CC[C@@H](c2ccc(Cl)c(C(F)(F)F)c2)c2ccccc21` (relative stereo) [(±)-cis 3-CF3,4-Cl NHCH3] showed a negative-log IC50 (pIC50) of 7.96.

The compound `CN(C)[C@H]1CC[C@H](c2ccc(Cl)c(Cl)c2)c2ccccc21` (relative stereo) [(±)-trans 3,4-diCl N(CH3)2] had a pIC50 of 7.52.

`CN[C@H]1CC[C@@H](c2ccc(Cl)cc2)c2ccccc21` (relative stereo) [(±)-cis 4-Cl NHCH3] had a pIC50 of 7.48.

`CN[C@H]1CC[C@@H](c2ccc(C(F)(F)F)cc2)c2ccccc21` (relative stereo) [(±)-cis 4-CF3 NHCH3] gave a pIC50 of 8.23.

In the case of `CN[C@H]1CC[C@H](c2cccc(C(F)(F)F)c2)c2ccccc21` (relative stereo) [(±)-trans 3-CF3 NHCH3], the negative-log IC50 (pIC50) is 7.80. This pIC50 lies 0.43 log units lower than the previous one.

Take `CN[C@H]1CC[C@@H](c2ccc(Br)cc2)c2ccccc21` (relative stereo) [(±)-cis 4-Br NHCH3]: the pIC50 was 7.89.

In the case of `CN[C@H]1CC[C@@H](c2ccc(Cl)cc2Cl)c2ccccc21` (relative stereo) [(±)-cis 2,4-diCl NHCH3], the pIC50 was 7.54.

For `CN(C)[C@H]1CC[C@@H](c2ccc(Cl)c(Cl)c2)c2ccccc21` (relative stereo) [(±)-cis 3,4-diCl N(CH3)2], the pIC50 was 7.36.

Compound `CN[C@H]1CC[C@H](c2ccc(Br)cc2)c2ccccc21` (relative stereo) [(±)-trans 4-Br NHCH3] gave a pIC50 of 7.07. Compared with the last compound, the pIC50 is 0.29 log units lower.

Staying with this assay, now noted: Table 2, enantiomers, 3 nM (+)-[3H]3-PPP.
The compound `N[C@H]1CC[C@@H](c2ccc(Cl)c(Cl)c2)c2ccccc21` [(+)-1S, 4S 3,4-diCl NH2, Cis(1S) (4S)-amino-4-(3,4-dichlorophenyl)-1,2,3,4-tetrahydro-1-naphthalenamine] had a negative-log IC50 (pIC50) of 7.24.

On to `CN(C)[C@H]1CC[C@@H](c2ccc(Cl)c(Cl)c2)c2ccccc21` [(+)-1S, 4S 3,4-diCl N(CH3)2, Cis(1S) (4S)-N,N-dimethyl-4-(3,4-dichlorophenyl)-1,2,3,4-tetrahydro-1-naphthalenamine], for which the pIC50 is 7.55.

As for `CN[C@H]1CC[C@@H](c2ccc(Cl)cc2)c2ccccc21` [(+)-1S, 4S 4-Cl NHCH3, Cis(1S) (4S)-N-methyl-4-(4-chlorophenyl)-1,2,3,4-tetrahydro-1-naphthalenamine], the pIC50 is 8.06.

In turn, `CN[C@H]1CC[C@@H](c2ccc(Cl)c(C(F)(F)F)c2)c2ccccc21` [(+)-1S, 4S 3-CF3,4-Cl NHCH3, Cis(1S) (4S)-N-methyl-4-(3-trifluoromethyl, 4-chloro-phenyl)-1,2,3,4-tetrahydro-1-naphthalenamine] showed a pIC50 of 7.77.
